Results as given in PMC5955586, “Transport of enniatin B and enniatin B1 across the blood-brain barrier and hints for neurotoxic effects in cerebral cells” (PLoS ONE, 2018).

How the values were obtained:
PBCEC = settings: cited from earlier work
PBCEC monolayer = experiment: Lucifer yellow permeability through PBCEC monolayer; format: in vitro ADME, porcine
Protocol: Before starting each experiment, the TEER values and the electrical capacitance of all cell layers were measured via cellular impedance spectroscopy (cellZscope®, nanoAnalytics, Münster, Germany). […] TEER values relate to the constitution of the tight junctions limiting paracellular transfer of compounds. In addition to the TEER, electrical capacitances (CCl) were monitored for 48 h. Cellular phospholipid bilayers act like an electrical capacitor and also contribute to the cellular impedance. Changes of the CCl value give information about the integrity of the cell monolayer. In this experiment, a parallel set up was applied. For each treatment, one triplicate of filters was monitored via cellular impedance spectroscopy over the course of 48 h using a cellZscope® device–here, the basolateral compartment was prepared with 1650 μL serum free medium and the volume in the apical compartment was filled to 760 μL (ratio 1:2.17). Another triplicate for the same incubation conditions was kept in Transwell® filter cell culture multiple well plates (12 well format) over the course of 48 h. In the multiple well plates the ratio between the apical and the basolateral compartment was 1:3, therefore the starting volume in the apical compartment is 500 μL and 1500 μL in the basolateral compartment. Here, samples for quantitation of transfer of enniatins across the barrier were drawn after 1, 2.5, 6.5, 18, 24, 28, 42 and 48 hours in this given ratio i.e. 30 μL apical and 90 μL basolateral. After 48 h, the final TEER values of the filters from the multiple well plate were measured to ensure the stability of the cell layer throughout the experiment. To double check the integrity of the barrier, lucifer yellow (LY, 50 μM), as a paracellular transfer marker, was applied. The amount of LY found in the basolateral compartment after 1 h was measured at λex = 430 nm and λ em = 540 nm.
After completion of each transport experiment, both active and passive, lucifer yellow (LY) was applied in 50 μM concentration in the apical compartments. Samples were drawn after 1 h and the amount of LY in the basolateral compartment was quantitated via external calibration. The permeability coefficients for LY through cells treated with the solvent control (ACN 0.1% and 0.02%) and through cells treated with the test compounds for the past 48 h were calculated (Table 2). The permeability coefficients range in the same order of magnitude for test substance treated cells and cells incubated with solvent, which is considerably lower than the permeability coefficients derived for ENN B and ENN B1 and indicates an intact and tight monolayer with low paracellular transfer of compounds.

Row | Molecule | Papp (PBCEC) | Permeability coefficient of LY (PBCEC monolayer; after 48 h treatment with 200 nM ENN B1 in both compartments (active)) | Permeability coefficient of LY (PBCEC monolayer; after 48 h treatment with 200 nM ENN B in both compartments (active)) | Permeability coefficient of LY (PBCEC monolayer; after 48 h treatment with 1 μM ENN B1 apically (passive)) | Permeability coefficient of LY (PBCEC monolayer; after 48 h treatment with 1 μM ENN B apically (passive)) | Permeability coefficient of LY (PBCEC monolayer; solvent control ACN 0.02%) | Permeability coefficient of LY (PBCEC monolayer; solvent control ACN 0.1%)
1 | Cn1c(=O)c2c(ncn2C)n(C)c1=O [caffeine] | 1.55e-05 cm/s |  |  |  |  |  | 
2 | lucifer yellow [LY] |  | 0.9 10^−6 cm/s | 0.7 10^−6 cm/s | 2.2 10^−6 cm/s | 1.9 10^−6 cm/s | 0.2 10^−6 cm/s | 3.2 10^−6 cm/s
